Assay results published in patent US8735406B2, “8-oxodihydropurine derivative” (Dainippon Sumitomo Pharma Co., Ltd., priority 2009, dated 2014).

Target: T1, FAAH (Rattus norvegicus, UniProt P97612)
T1 construct: Preparation of Rat Brain Membranes Preparations (FAAH Enzyme Solution); from tissue; host or cells: rat cerebrum (brain membrane preparation)
T1 sequence (P97612 1-579): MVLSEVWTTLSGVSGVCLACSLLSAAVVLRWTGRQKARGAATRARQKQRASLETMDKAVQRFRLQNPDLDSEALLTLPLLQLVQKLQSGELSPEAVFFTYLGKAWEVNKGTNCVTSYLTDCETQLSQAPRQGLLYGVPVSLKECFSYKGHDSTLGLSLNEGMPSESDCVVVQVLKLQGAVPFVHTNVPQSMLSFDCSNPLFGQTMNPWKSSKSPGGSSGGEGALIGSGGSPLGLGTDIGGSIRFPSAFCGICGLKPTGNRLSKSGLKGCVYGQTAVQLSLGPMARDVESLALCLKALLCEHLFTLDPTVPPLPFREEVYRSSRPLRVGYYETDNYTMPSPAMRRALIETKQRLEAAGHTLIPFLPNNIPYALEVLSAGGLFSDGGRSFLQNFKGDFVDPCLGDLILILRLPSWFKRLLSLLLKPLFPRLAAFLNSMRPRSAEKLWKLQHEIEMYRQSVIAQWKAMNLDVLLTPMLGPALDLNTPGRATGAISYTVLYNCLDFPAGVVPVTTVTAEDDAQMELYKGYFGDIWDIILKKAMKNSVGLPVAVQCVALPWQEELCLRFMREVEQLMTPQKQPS
Assay: Determination of FAAH inhibitory activity in rat (rat brain membrane preparations, [3H]-anandamide hydrolysis)
Format: biochemical
Settings: rat brain membrane preparations; for inhibition at 0.1 µM: 100 nM test substance, read-out: FAAH Inhibition, Inhibition Rate at 100 nM; for IC50: test substance 0.1 nM to 1 μM, read-out: FAAH Inhibition IC50
Experimental: Determination of FAAH Inhibitory Activity in Rat
The preparation of rat brain membranes preparations and the determination of FAAH inhibitory activity were carried out according to the Jonsson et al. method [Br. J. Pharmacol., 133, 1263 (2001)].
(1) Preparation of Rat Brain Membranes Preparations (FAAH Enzyme Solution)
The cerebrum was extracted from rats and was freeze-stored at −80° C. To the frozen cerebrum was added 4° C. enzyme homogenization buffer (20 mM HEPES-buffer pH 7.0, 1 mM MgCl2) and the mixture was homogenized using a homogenizer in ice and the homogenates were centrifuged (36,000×g for 20 minutes). After repeating operations of homogenization and centrifugation, the tissue pellets were re-suspended with 4° C. enzyme homogenization buffer. The re-suspensions were incubated at 37° C. for 15 minutes and were centrifuged (36,000×g for 20 minutes), and the resulting tissue membranes were then re-suspended with enzyme solution preparation buffer (50 mM Tris-HCl buffer pH 7.4, 1 mM EDTA, 3 mM MgCl2). The protein concentration in the resulting membrane preparations were determined according to a colorimetry method (BCA Protein Assay: Pierce Inc.) and the preparations were freeze-stored at −80° C. until used for assay.
(2) Screening of Substances for Inhibiting FAAH Activity
To the above membrane preparations (final concentration 100 μg/mL) were added a solution of test substances in DMSO (final concentration in DMSO 1%) and an assay buffer (for final preparation; 22 mM Tris-HCl (pH 7.6), 1.4 mM EDTA, 1.5% BSA, 0.6 mM MgCl2) and the resulting mixtures were preincubated at 37° C. for 10 minutes. Thereto was added a substrate solution (for final preparation; 2 nM [^3H]-Anandamide (American Radiolabeled Chemicals Inc.)+2 μM Anandamide (Sigma-Aldrich Co.)) (final assay volume of 200 μL) and the resulting mixtures were incubated at 37° C. for 10 minutes. Here in control experiment, DMSO was added instead of the solution of test substance in DMSO. Also in blank experiment, DMSO was added instead of the solution of test substance in DMSO and an enzyme solution preparation buffer was also added instead of the membrane preparations. After the incubation, thereto was added a 400 μL ice-cooled solution of chloroform and methanol (1:1 ratio by volume) and the resulting mixtures were stirred. An ethanolamine (ethanolamine-1-[^3H]) as a decomposed product was separated into an upper layer (water/methanol layer) by centrifugation (1,000×g for 10 minutes). The upper layer 200 μL was transferred into 96 well Deepwell Luma Plate-96 (PerkinElmer Inc.) and the radioactivity was measured by microplate scintillation counter (TopCount NXT™: […].). The substances showing a lower measured value compared to those of control were selected as the compound having a FAAH inhibitory activity.
(3) Determination of IC50 Value
The test substances were prepared such that the final concentration of the compounds is within the range of 0.1 nM to 1 μM and were then examined on the effect on FAAH activity according to the above-mentioned protocol.

| SMILES | inhibition at 0.1 µM [%] | IC50 [nM] |
| --- | --- | --- |
| COc1cccc(-c2ncc3c(n2)n(C)c(=O)n3C(=O)N2CC[C@@H](OC)C2)c1 [Example 47] | 16 | > 100 |
| COc1cccc(-c2ncc3c(n2)n(C)c(=O)n3C(=O)N(C)C)c1 [Example 48, 2-(3-Methoxyphenyl)-N,N,9-trimethyl-8-oxo-8,9-dihydro-7H-purine-7-carboxamide] | 100 | 4 |
| COc1cccc(-c2ncc3c(n2)n(C)c(=O)n3C(=O)N2CCCCC2)c1 [Example 49, 2-(3-Methoxyphenyl)-9-methyl-7-(piperidin-1-ylcarbonyl)-7,9-dihydro-8H-purine-8-one] | 99 | 6 |
| Cn1c(=O)n(C(=O)N2CCN(c3ccc(C(F)(F)F)cn3)CC2)c2cnc(-c3ccccc3)nc21 [Example 50, 9-Methyl-2-phenyl-7-({4-[5-(trifluoromethyl)-pyridin-2-yl]piperazin-1-yl}carbonyl)-7,9-dihydro-8H-purine-8-one] | 98 | 9 |
| Cn1c(=O)n(C(=O)N2CCN(c3ncccn3)CC2)c2cnc(-c3ccccc3)nc21 [Example 51, 9-Methyl-2-phenyl-7-{[4-(pyrimidin-2-yl)piperazin-1-yl]carbonyl}-7,9-dihydro-8H-purine-8-one] | 97 | 25 |
| Cc1cccc(N2CCN(C(=O)n3c(=O)n(C)c4nc(-c5ccccc5)ncc43)CC2)n1 [Example 53, 9-Methyl-7-{[4-(6-methylpyridin-2-yl)piperazin-1-yl]carbonyl}-2-phenyl-7,9-dihydro-8H-purine-8-one] | 97 | 19 |
| COc1cccc(N2CCN(C(=O)n3c(=O)n(C)c4nc(-c5ccccc5)ncc43)CC2)n1 [Example 54, 7-{[4-(6-Methoxypyridin-2-yl)piperazine-1-yl]carbonyl}-9-methyl-2-phenyl-7,9-dihydro-8H-purine-8-one] | 99 | 24 |
| Cn1c(=O)n(C(=O)N2CCN(c3nccs3)CC2)c2cnc(-c3ccccc3)nc21 [Example 55, 9-Methyl-2-phenyl-7-{[4-(1,3-thiazol-2-yl)piperazin-1-yl]carbonyl}-7,9-dihydro-8H-purine-8-one] | 94 | 25 |
| Cc1ccc(N2CCN(C(=O)n3c(=O)n(C)c4nc(-c5ccccc5)ncc43)CC2)nc1 [Example 56, 9-Methyl-7-{[4-(5-methylpyridin-2-yl)piperazin-1-yl]carbonyl}-2-phenyl-7,9-dihydro-8H-purine-8-one] | 100 | 7 |
| COc1cccc(-c2ncc3c(n2)n(C)c(=O)n3C(=O)N2CCC2)c1 [Example 57, 7-(Azetidin-1-ylcarbonyl)-2-(3-methoxyphenyl)-9-methyl-7,9-dihydro-8H-purine-8-one] | 101 | 5 |
| COc1cccc(-c2ncc3c(n2)n(C)c(=O)n3C(=O)N2CCOCC2)c1 [Example 58] | 76 | 62 |
| COCCN(C)C(=O)n1c(=O)n(C)c2nc(-c3cccc(OC)c3)ncc21 [Example 59, N-(2-Methoxyethyl)-2-(3-methoxyphenyl)-N,9-dimethyl-8-oxo-8,9-dihydro-7H-purine-7-carboxamide] | 99 | 26 |
| CCN(C)C(=O)n1c(=O)n(C)c2nc(-c3cccc(OC)c3)ncc21 [Example 60, N-Ethyl-2-(3-methoxyphenyl)-N,9-dimethyl-8-oxo-8,9-dihydro-7H-purine-7-carboxamide] | 99 | 6 |
| COc1cccc(-c2ncc3c(n2)n(C)c(=O)n3C(=O)N2CC[C@@H](F)C2)c1 [Example 62, 7-{[(3R)-3-Fluoropyrrolidin-1-yl]carbonyl}-2-(3-methoxyphenyl)-9-methyl-7,9-dihydro-8H-purine-8-one] | 90 | 26 |
